Experimental data from ChEMBL document CHEMBL1201862, “PubChem BioAssay data set” (2004).
The source made the active and inactive calls.

Key:
Exodeoxyribonuclease V = target: T1, Exodeoxyribonuclease V (Escherichia coli (strain K12), UniProt P04993+P07648+P08394); assay: E. coli RecBCD inhibitors, dose response, counter-screen for AddAB inhibitor project, absorbance, V66 E. coli, mutant T4 phage (AID 492957); assay type: functional, cell-based, Escherichia coli str. K-12 substr. MG1655
T1 sequence (P04993 whole entry): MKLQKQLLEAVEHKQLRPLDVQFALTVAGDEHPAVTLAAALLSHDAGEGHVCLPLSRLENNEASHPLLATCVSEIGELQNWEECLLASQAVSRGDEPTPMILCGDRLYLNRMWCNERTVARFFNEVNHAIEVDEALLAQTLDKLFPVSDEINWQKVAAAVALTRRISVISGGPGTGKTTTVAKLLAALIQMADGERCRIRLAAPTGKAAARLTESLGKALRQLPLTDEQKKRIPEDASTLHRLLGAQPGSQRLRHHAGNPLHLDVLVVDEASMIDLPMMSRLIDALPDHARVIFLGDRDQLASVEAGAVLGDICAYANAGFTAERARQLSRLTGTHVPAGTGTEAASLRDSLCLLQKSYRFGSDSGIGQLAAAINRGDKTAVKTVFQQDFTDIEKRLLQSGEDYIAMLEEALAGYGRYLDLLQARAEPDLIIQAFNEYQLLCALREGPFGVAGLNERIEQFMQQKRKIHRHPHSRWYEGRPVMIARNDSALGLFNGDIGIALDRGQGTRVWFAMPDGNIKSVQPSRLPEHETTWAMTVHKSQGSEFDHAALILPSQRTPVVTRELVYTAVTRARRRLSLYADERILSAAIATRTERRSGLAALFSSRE
T1 sequence (P07648 whole entry): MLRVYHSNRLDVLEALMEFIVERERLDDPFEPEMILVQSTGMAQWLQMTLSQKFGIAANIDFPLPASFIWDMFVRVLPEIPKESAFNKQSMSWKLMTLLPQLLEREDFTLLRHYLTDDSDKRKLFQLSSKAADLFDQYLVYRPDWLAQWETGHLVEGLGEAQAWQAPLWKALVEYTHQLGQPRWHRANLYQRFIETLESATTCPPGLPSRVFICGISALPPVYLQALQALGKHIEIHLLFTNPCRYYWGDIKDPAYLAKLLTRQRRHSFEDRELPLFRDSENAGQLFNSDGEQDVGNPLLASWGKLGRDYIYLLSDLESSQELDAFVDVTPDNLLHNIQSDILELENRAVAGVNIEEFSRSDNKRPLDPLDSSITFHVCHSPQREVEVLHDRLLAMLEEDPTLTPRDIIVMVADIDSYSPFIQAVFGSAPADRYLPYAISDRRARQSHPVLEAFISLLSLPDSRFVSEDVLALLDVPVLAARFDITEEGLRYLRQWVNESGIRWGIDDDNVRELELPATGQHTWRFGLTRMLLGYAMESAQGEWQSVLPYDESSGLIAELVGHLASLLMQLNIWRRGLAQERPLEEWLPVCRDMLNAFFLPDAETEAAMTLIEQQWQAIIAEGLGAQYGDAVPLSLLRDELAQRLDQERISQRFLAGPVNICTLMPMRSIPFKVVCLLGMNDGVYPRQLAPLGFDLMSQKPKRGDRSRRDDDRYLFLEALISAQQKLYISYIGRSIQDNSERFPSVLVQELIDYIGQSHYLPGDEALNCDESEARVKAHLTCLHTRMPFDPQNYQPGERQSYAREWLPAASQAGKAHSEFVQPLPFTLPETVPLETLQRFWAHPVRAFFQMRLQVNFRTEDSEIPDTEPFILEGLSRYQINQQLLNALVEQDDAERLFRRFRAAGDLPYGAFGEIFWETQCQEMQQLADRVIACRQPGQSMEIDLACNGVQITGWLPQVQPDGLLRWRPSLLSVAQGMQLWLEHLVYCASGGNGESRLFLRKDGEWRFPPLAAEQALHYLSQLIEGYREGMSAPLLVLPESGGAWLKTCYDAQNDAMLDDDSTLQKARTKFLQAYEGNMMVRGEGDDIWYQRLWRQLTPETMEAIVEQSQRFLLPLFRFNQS
T1 sequence (P08394 whole entry): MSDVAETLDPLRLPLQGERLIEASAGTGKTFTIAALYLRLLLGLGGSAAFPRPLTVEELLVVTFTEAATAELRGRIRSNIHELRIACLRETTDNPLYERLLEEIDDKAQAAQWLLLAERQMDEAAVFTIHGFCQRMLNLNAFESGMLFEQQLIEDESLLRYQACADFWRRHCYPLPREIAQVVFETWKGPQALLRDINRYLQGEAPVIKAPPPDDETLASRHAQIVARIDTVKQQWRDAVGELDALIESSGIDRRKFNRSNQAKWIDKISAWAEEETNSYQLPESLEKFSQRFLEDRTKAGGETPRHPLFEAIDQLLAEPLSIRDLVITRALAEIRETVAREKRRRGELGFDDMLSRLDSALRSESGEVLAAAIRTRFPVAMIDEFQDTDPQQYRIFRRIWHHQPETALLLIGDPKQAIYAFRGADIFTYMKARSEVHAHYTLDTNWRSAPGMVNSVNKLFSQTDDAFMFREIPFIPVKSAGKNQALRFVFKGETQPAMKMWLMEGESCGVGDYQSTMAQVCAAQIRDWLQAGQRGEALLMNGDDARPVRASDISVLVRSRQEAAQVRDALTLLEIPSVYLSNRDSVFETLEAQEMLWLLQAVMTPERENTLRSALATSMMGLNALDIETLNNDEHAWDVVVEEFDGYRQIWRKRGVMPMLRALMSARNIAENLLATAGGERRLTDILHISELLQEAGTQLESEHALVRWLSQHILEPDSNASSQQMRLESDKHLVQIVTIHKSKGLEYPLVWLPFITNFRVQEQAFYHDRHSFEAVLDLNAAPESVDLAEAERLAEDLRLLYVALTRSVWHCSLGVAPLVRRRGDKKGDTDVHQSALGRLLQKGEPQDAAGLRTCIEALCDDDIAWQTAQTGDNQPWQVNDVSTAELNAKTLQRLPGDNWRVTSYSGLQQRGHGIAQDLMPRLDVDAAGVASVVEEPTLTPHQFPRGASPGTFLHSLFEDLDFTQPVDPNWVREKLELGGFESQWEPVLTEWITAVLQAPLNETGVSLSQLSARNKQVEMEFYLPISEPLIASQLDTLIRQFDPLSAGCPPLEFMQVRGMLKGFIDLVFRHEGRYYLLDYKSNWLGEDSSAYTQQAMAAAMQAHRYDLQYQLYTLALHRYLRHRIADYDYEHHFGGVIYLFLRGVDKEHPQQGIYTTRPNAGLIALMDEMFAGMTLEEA

[1] = target: Lysine-specific demethylase 4C (Homo sapiens, UniProt Q9H3R0); assay: GASC-1 (JMJD2C) histone demethylase inhibitors, dose response, biochemical, DELFIA europium, cherry-picked samples (AID 488835); assay type: functional
[2] = MC4R antagonists, dose response, counter-screen for LGR2 antagonist project, cell-based, plate reader, cherry pick (AID 743444); assay type: functional;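 also: transfected HEK 293 cells stimulated with alpha-MSH peptide; potency of inhibitors of the alpha-MSH evoked signal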

Lysine-specific demethylase 4C, sequence (Q9H3R0 whole entry): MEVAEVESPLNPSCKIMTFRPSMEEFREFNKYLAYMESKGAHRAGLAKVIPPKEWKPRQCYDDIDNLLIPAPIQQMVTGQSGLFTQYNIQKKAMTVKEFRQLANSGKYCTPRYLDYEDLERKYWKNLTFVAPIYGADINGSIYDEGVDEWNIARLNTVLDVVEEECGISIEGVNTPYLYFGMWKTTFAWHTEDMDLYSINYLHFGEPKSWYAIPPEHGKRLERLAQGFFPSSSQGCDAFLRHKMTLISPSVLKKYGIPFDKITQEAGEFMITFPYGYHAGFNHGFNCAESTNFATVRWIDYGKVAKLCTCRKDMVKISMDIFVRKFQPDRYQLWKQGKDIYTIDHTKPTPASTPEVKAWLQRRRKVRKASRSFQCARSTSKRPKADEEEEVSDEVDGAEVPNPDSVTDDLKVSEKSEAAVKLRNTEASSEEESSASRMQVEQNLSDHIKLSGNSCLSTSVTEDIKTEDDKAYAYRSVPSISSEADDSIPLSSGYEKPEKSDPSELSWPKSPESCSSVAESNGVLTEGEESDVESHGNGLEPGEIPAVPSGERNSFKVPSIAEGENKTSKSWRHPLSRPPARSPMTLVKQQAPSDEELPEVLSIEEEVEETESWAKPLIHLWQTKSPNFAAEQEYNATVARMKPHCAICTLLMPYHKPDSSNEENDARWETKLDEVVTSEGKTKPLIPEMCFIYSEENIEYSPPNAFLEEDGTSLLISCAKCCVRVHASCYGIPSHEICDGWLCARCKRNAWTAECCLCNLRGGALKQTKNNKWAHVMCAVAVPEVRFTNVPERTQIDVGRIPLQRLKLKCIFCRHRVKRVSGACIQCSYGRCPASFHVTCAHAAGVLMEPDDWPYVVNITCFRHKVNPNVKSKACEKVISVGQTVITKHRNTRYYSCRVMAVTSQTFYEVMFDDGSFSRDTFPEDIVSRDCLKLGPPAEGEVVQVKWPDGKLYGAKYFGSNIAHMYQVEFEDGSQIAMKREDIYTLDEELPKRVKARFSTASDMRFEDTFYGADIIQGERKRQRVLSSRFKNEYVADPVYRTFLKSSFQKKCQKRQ

Structure (SMILES)	IC50 (Exodeoxyribonuclease V)	AC50 [1]	AC50 [2]
CCC(=O)NC(c1ccc(OC)cc1)c1cc(Cl)c2cccnc2c1O (stereo not drawn)	> 119000 nM (inactive)	–	–
Cn1nc(-c2ccccn2)nc2c(=O)n(C)c(=O)nc1-2	–	873 nM (active)	2730 nM (active)
